Entries after “also recorded” stand apart in the source; their conditions may differ. Ends that are not written are not given here.
Key:
[1] = test system: bleomycin-induced lung fibrosis; experiment: Bleomycin mouse model of pulmonary fibrosis (prevention model); assay type: in vivo, C57BL/6 mice; conditions: for collagen accumulation (Masson's Trichrome staining) / fibrotic loci formation / lung fibrosis (H&E staining): daily day 7 to 21 post bleomycin
Procedure: (§1) A mouse model of pulmonary fibrosis was generated by administering 0.025 U of bleomycin/PBS intratracheally to C57BL/6 mice. […] At 21 day post bleomycin delivery (for prevention model) or 28 post bleomycin delivery (for treatment model), groups of mice were sacrificed with a sodium pentobarbital injection (120 mg/kg) and the chest cavity was opened. The right mainstem bronchus was ligated and the right lung was removed. The trachea was cannulated and the left lung was perfused with 4% formaldehyde at 21 cm H2O pressure. The tissue blocks then were embedded in paraffin, and […] sections were prepared for staining. Sections from each animal were stained with hematoxylin and eosin (H&E) to visualize cells or with Masson's Trichrome staining to highlight collagen deposition. […] Stained sections were mounted onto a labeled glass slide with organic mounting medium.
Briefly, fibrotic loci in the lungs of the mice were induced by delivering intratracheally about 0.025 U of bleomycin (dissolved in PBS) to C57BL/6 mice. […] Briefly, mice were sacrificed with a sodium pentobarbital injection (120 mg/kg) and the chest cavity was opened. The right mainstem bronchus was ligated and the right lung was removed. The trachea was cannulated and the left lung was perfused with 4% formaldehyde at 21 cm H2O pressure. The tissue blocks then were embedded in paraffin, and […] sections were prepared, and stained with hematoxylin and eosin (H&E; for pathological examination) or Masson's Trichrome (for collagen staining)
Next, total collagen levels in the lungs of the bleomycin-injured mice (FIG. 12) were analyzed quantitatively by computing a constant conversion factor (7.5) for collagen from hydroxyproline concentrations (Neuman R. and Logan M, J Biol Chem., 186(2):549-56, 1950, incorporated by reference).
Next, the effect of increasing doses of MK2 peptide inhibitors on collagen deposition was examined in vivo using the bleomycin mouse model of idiopathic pulmonary fibrosis (prevention model). Briefly, C57-BL/6 mice were subjected to bleomycin injury at day 0.

[2] = test system: bleomycin-induced lung fibrosis; experiment: Bleomycin mouse model of pulmonary fibrosis (treatment model); assay type: in vivo, C57BL/6 mice; conditions: for collagen deposition (hydroxyproline assay, whole left lung): day 28 post bleomycin; for lung scarring, histology (H&E and Masson's blue trichrome): daily day 14 to 28 post bleomycin
Procedure: as §1
The classic bleomycin model, as depicted in FIG. 10, has been used widely in the literature in the pre-fibrotic stage to test efficacy of any intervention.
More specifically, fibrotic loci in the lungs were induced by delivering intratracheally about 0.025 U of bleomycin (dissolved in PBS) to C57BL/6 mice. […] Mice were sacrificed with a sodium pentobarbital injection (120 mg/kg) and the chest cavity was opened. The right mainstem bronchus was ligated and the right lung is removed. The trachea was cannulated and the left lung was perfused with 4% formaldehyde at 21 cm H2O pressure. The tissue blocks then were embedded in paraffin, and […] sections were prepared, and stained with hematoxylin and eosin (H&E; for pathological examination) or Masson's Trichrome (for collagen staining)
Next, collagen deposition was determined quantitatively by using the standard hydroxyproline assay with whole left lung. Total collagen (soluble and insoluble) deposition was assessed by analyzing hydroxyproline concentrations in murine lungs day 28 post bleomycin injury.

splenic T cells = experiment: Autologous mixed lymphocyte reaction, splenic T cells of bleomycin mice; assay type: in vivo, C57-BL/6 mice
Source text: Recent studies highlighted a key role for T lymphocytes in bleomycin-induced fibrosis (Wilson, M. et al., The Journal of Experimental Medicine, 207(3): 535-552, 2010). […] Specifically, the ability of C57BL/6 purified antigen-presenting cells to induce proliferation in C57BL/6 T lymphocytes was examined in the assay.
C57-BL/6 mice were subjected to bleomycin injury at day 0. […] Splenic T cells were isolated and cultured alone or in the presence of autologous antigen presenting cells (APCs from C57-BL/6 mice) or stimulated with antibodies against CD3 (α-CD3) for 48 h. The cells then were radiolabeled with […] thymidine for 16 h and assessed for proliferation rates.

[3] = test system: phospho-Thr^334-MAPKAPK2 (activated MK2); experiment: Activated MK2 immunostaining of lung sections, bleomycin treatment model; assay type: in vivo, C57-BL/6 mice; conditions: day 14 to 28
Source text: (§2) Briefly, C57-BL/6 mice were subjected to bleomycin injury at day 0. […] Formalin-fixed lung tissue sections were immunostained against phospho-Thr^334 MK2. Control staining was with biotinylated secondary IgG antibody. Streptavidin-conjugated horseradish peroxidase was used with 3,3′-diaminobenzidene as substrate and nuclei was counterstained with hematoxylin.

TNF-α = experiment: Plasma cytokine level, bleomycin treatment model; assay type: in vivo, mouse; conditions: 24 hours after final administration
MAPKAP-K2 (h) = MAPKAP-K2 (h) (Homo sapiens, UniProt P49137); experiment: Kinase Profiling Assay; assay type: biochemical; conditions: read-out: inhibition of kinase activity of MK2
Sequence of MAPKAP-K2 (h) (P49137 whole entry): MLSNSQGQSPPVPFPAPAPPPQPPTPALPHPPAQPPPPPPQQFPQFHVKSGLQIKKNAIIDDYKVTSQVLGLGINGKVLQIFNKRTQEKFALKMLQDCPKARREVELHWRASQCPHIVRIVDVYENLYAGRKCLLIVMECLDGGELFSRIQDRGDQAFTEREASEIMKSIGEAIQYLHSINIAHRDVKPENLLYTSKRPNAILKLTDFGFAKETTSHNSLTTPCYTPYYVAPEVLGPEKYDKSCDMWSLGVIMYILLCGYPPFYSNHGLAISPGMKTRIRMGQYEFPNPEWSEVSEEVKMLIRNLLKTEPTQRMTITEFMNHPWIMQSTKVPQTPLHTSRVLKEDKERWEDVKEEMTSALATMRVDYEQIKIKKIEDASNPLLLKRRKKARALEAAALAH
Procedure: (§3) Every kinase activity measurement was conducted in duplicate.
(§4) Specifically, in these assays, a positively charged substrate is phosphorylated with a radiolabeled phosphate group from an ATP if the kinase is not inhibited by an inhibitor peptide. The positively charged substrate then is attracted to a negatively charged filter membrane, quantified with a scintillation counter, and compared to a 100% activity control.
(§5) In addition to determining the IC50 of the compound, the specificity of MK2 inhibitory peptides was assessed by examining activities of all 266 human kinases available for testing in the Millipore kinase profiling service (Table 1).

MAPKAP-K3 (h) = MAPKAP-K3 (h) (Homo sapiens, UniProt Q16644); experiment: Kinase Profiling Assay; assay type: biochemical; conditions: read-out: inhibition of kinase activity of MK3
Sequence of MAPKAP-K3 (h) (Q16644 whole entry): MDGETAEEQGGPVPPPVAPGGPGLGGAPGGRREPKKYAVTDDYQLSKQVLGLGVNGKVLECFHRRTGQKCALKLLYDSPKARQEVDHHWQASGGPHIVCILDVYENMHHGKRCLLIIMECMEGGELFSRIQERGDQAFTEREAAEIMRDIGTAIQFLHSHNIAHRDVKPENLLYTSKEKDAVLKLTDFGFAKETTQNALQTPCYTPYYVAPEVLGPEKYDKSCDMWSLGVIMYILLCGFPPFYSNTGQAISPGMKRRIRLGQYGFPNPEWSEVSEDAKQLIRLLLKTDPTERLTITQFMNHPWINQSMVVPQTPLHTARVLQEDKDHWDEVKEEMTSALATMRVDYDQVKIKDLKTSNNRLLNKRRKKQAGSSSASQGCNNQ
Procedure: as §3, §4, §5

TrkB (h) = TrkB (h) (Homo sapiens, UniProt Q16620); experiment: Kinase Profiling Assay; assay type: biochemical; conditions: read-out: inhibition of kinase activity of TrkB
Sequence of TrkB (h) (Q16620 32-822): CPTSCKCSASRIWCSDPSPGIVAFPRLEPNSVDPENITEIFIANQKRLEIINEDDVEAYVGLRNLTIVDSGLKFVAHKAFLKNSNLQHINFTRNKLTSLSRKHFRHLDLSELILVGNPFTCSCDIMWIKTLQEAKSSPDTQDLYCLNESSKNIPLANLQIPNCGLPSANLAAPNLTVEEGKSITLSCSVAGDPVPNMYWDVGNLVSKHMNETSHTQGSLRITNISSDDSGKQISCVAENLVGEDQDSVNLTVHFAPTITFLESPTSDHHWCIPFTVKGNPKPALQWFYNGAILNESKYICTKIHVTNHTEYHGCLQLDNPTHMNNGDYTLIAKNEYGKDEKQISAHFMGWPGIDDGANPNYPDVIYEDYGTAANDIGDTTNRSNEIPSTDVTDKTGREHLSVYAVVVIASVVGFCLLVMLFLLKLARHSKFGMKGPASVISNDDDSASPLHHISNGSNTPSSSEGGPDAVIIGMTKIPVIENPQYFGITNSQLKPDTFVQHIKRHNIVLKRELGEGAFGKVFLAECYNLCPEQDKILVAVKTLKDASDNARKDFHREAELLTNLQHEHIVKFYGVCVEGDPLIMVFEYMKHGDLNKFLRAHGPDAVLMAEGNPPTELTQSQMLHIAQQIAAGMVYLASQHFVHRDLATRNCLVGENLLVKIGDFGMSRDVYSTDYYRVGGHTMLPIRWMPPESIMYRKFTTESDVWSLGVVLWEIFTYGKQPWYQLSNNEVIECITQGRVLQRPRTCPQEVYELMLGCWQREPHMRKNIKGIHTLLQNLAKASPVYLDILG
Procedure: as §3, §4, §5

p70S6K (h) = target: T1, p70S6K (h) (Homo sapiens, UniProt P23443); experiment: Kinase Profiling Assay; assay type: biochemical
T1 construct: purchased Millipore
T1 sequence (P23443 whole entry): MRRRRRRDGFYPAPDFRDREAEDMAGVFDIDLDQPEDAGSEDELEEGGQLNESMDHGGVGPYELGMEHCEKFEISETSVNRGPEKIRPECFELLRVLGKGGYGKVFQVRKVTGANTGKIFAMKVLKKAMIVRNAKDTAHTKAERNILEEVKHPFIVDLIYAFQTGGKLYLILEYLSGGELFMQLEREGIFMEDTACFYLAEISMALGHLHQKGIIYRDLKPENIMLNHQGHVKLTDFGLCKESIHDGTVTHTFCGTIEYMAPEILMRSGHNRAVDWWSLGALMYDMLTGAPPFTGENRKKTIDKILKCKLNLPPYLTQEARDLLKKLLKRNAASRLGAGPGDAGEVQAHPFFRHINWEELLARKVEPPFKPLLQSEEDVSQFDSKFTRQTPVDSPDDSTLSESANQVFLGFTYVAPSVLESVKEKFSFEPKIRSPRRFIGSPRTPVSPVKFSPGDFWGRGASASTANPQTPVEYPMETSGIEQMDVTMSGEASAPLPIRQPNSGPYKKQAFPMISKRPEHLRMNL
Procedure: as §3, §4, §5

MLCK (h) = experiment: Kinase Profiling Assay; assay type: biochemical, human; conditions: 100 μM
Procedure: as §3, §4, §5

SGK (h) = experiment: Kinase Profiling Assay; assay type: biochemical, human; conditions: 100 μM
Procedure: as §3, §4, §5

IL-6 = experiment: Plasma cytokine level, bleomycin treatment model; assay type: in vivo, mouse; conditions: 24 hours after final administration
[4] = test system: alpha-smooth muscle actin (α-SMA); experiment: α-SMA immunostaining of lung sections, bleomycin treatment model; assay type: in vivo, C57-BL/6 mice; conditions: day 14 through 28
Source text: as §2, with “C57-BL/6” for “Briefly, C57-BL/6”, “α-SMA.” for “phospho-Thr^334 MK2.”, “hematoxylin. Original magnifications: 20×” for “hematoxylin.”

[5] = test system: human fetal lung fibroblasts (IMR-90), α-SMA; experiment: TGF-β-induced myofibroblast activation, α-SMA immunoblot; assay type: cell-based; conditions: 1 h pre-treatment, then TGF-β1 (2 ng/ml) 48 h
Source text: Cell lysates were immunoblotted against antibodies for α-SMA (a marker for myofibroblast activation) and GAPDH (loading control).

[6] = test system: human fetal lung fibroblasts (IMR-90), fibronectin; experiment: TGF-β-mediated fibronectin expression; assay type: cell-based; conditions: 1 h pre-treatment, then TGF-β1 (2 ng/ml) 72 h
Procedure: Fibronection was measured as secreted fragments in the conditioned media. Equal amounts (14 μg) of total proteins from the conditioned media were loaded in each lane.

In the case of YARAAARQARAKALARQLGVAA [MMI-0100], the “collagen levels in the lung (Masson's blue trichrome staining), dose response” value ([1]; 25, 50 or 75 μg/kg daily IP, day 7 through day 21) is reported as “prevents fibrosis due to bleomycin injury in a dose-dependent manner; also recorded: decrease in collagen levels”, the “collagen accumulation (Masson's Trichrome staining)” value ([1]; intraperitoneal) is reported as “reduced collagen accumulation” and the “fibrotic loci formation / lung fibrosis (H&E staining)” value ([1]; intraperitoneal) is reported as “protects against bleomycin-induced lung fibrosis; also recorded: significantly reduced development of fibrotic loci formation”. The “collagen accumulation (Masson's Trichrome staining)” value ([1]; nebulization) was “reduced collagen accumulation”, the “fibrotic loci formation / lung fibrosis (H&E staining)” value ([1]; nebulization) was “protects against bleomycin-induced lung fibrosis; also recorded: significantly reduced development of fibrotic loci formation” and the “collagen deposition (hydroxyproline assay, whole left lung)” value ([2]; 50 μg/kg/day IP from day 14) was “arrests significant collagen deposition; also recorded: significantly arrested further progression of collagen deposition”. The “collagen deposition (hydroxyproline assay, whole left lung)” value ([2]; 50 μg/kg/day nebulizer from day 14) was “arrests significant collagen deposition; also recorded: significantly arrested further progression of collagen deposition”, the “lung scarring, histology (H&E and Masson's blue trichrome)” value ([2]; intraperitoneal) was “ameliorates bleomycin-induced lung fibrosis; also recorded: rescued” and the “lung scarring, histology (H&E and Masson's blue trichrome)” value ([2]; nebulized) was “ameliorates bleomycin-induced lung fibrosis; also recorded: rescued”. The “toxicity (proliferative response of splenic T cells to α-CD3)” value (splenic T cells; 50 μg/kg/day, day 7 to 21) was “no toxicity”, the systemic distribution (splenic T cells; nebulized, inferred from lack of splenic T cell response) was “little systemic distribution” and the “phospho-Thr^334-MAPKAPK2 staining (activated form of MK2) in lung” value ([3]; 50 μg/kg daily intraperitoneal) was “decreased phospho-Thr^334-MAPKAPK2 staining”. For the same sequence, the “phospho-Thr^334-MAPKAPK2 staining (activated form of MK2) in lung” value ([3]; 50 μg/kg daily nebulized) was “as effective as conventional systemic injections in attenuating MK2 activation; also recorded: decreased phospho-Thr^334-MAPKAPK2 staining”, the “plasma level of TNF-α” value (TNF-α; intraperitoneal) was “significantly reduced” and the “plasma level of TNF-α” value (TNF-α; nebulized) was “significantly reduced”. It also gave an inhibition at 100 µM (MAPKAP-K2 (h)) of over 65%, an inhibition at 100 µM (MAPKAP-K3 (h)) of over 65% and an inhibition at 100 µM (TrkB (h)) of over 65%. For the same sequence, the activity at 100 µM (p70S6K (h)) was 89%, the “% activity” value (MLCK (h)) was 85% and the “% activity” value (SGK (h)) was 128%. The “plasma level of IL-6” value (IL-6; intraperitoneal) was “significantly reduced”, the “plasma level of IL-6” value (IL-6; nebulized) was “significantly reduced” and the “level of α-SMA in bleomycin-injured lungs” value ([4]; 50 μg/kg/day intraperitoneal) was “inhibits myofibroblast alpha-smooth muscle actin (α-SMA) activation; also recorded: significantly attenuated”. For the same sequence, the “level of α-SMA in bleomycin-injured lungs” value ([4]; 50 μg/kg/day nebulizer) was “inhibits myofibroblast alpha-smooth muscle actin (α-SMA) activation; also recorded: significantly attenuated”, the “protein level of α-smooth muscle actin (α-SMA)” value [5] was “effectively prevented myofibroblast activation” and the “protein level of fibronectin (secreted fragments in conditioned media)” value [6] was “effectively prevented myofibroblast activation”.
